Results: patent publication US10590118B2, “Bicyclic heterocyclic derivatives as bromodomain inhibitors” (Orion Corporation, priority 2014, dated 2020)

What follows are compounds tested against T1, Bet bromodomain protein (BRD4) (Homo sapiens, UniProt O60885) (assay: Bet bromodomain TR-FRET assay). Settings: 300 nM acetyl histone peptide substrate, results given as Group A/B/C.
T1 construct: made in house
Format: binding
Experimental: In-Vitro Biochemical Data of bicyclic heterocyclic derivatives in time-resolved fluorescence resonance energy transfer (TR-FRET) assay.
The Bet brommodomain TR-FRET assay has been used to identify compounds that bind to bet bromodomain and prevent its interaction with acetylated histone peptides.
In the assay, optimized concentration of in-house Bet bromodomain protein (BRD4) and 300 nM of acetyl histone peptide substrate were diluted in assay buffer (50 mM HEPES, pH: 7.5, 50 mM NaCl, 500 μM CHAPS) and were added to the positive control and test control wells in a 384 well plate. Substrate control wells have 300 nM of acetyl histone peptide substrate diluted in assay buffer. Buffer blank wells were added with assay buffer. The reaction mixture was allowed for incubation at room temperature for 30 mins. Stock solutions of test compounds at 20 mM DMSO are prepared. Compounds are serially diluted and added to the test wells in 384-well polypropylene plates. The reaction mixture was further incubated for 30 mins at room temperature on a plate shaker. 2 nM of Europium labeled streptavidn and 10 nM of XL-665 labeled antibody diluted in detection buffer (50 mM HEPES, pH: 7.5, 50 mM NaCl, 500 μM CHAPS and 800 mM KF) were added to all the wells excluding the buffer blank wells. The reaction plate was incubated for additional 30 mins at room temperature on plate shaker. The plate was read in Perkin Elmer WALLAC 1420 Multilabel Counter Victor 3 (Ex: 340 nm Em: 615 and 665 nm). The amount of displacement of the peptide was measured as ratio of specific 665 nm energy transfer signal to 615 nm signals. The compounds IC50 was determined by fitting the dose response data to sigmoid curve fitting equation using Graph Pad Prism software V5.

Row | SMILES | IC50
1 | COc1cc2c(cc1-c1c(C)noc1C)cc(C(O)C(F)(F)F)c(=O)n2Cc1ccccn1 (single isomer, unassigned) [Compound 102, 6-(3,5-dimethylisoxazol-4-yl)-7-methoxy-1-(pyridin-2-ylmethyl)-3-(2,2,2-trifluoro-1-hydroxyethyl)quinolin-2(1H)-one] | ≤ 1 µM
2 | COc1cc2c(cc1-c1c(C)noc1C)OCC(=O)N2Cc1ccccn1 [Compound 22, 7-(3,5-dimethytisoxazol-4-yl)-6-methoxy-4-(pyridin-2-ylmethyl)-2H-benzo[b][1,4]oxazin-3(4H)-one] | ≤ 1 µM
3 | COc1cc2c(cc1-c1c(C)noc1C)cc(C(O)C(F)(F)F)c(=O)n2Cc1ccccn1 (racemic) [Compound 101, 6-(3,5-dimethylisoxazol-4-yl)-methoxy-1-(pyridin-2-ylmethyl)-3-(2,2,2-trifluoro-1-hydroxyethyl)quinolin-2(1H)-one] | ≤ 1 µM
4 | COc1cc2c(cc1-c1c(C)noc1C)OCC(=O)N2Cc1cccnc1 [Compound 21, 7-(3,5-dimethylisoxazol-4-yl)-6-methoxy-4-(pyridin-3-ylmethyl)-2H-benzo[b][1,4]oxazin-3(4H)-one] | ≤ 1 µM
5 | COc1cc2c(cc1-c1c(C)noc1C)OCC(=O)N2Cc1ccc(F)cn1 [Compound 29, 7-(3,5-dimethylisoxazol-4-yl)-4-((5-fluoropyridin-2-yl)methyl)-6-methoxy-2H-benzo[b][1,4]oxazin-3(4H)-one] | ≤ 1 µM
6 | Cc1noc(C)c1-c1cc2ccc(=O)n(Cc3ccccn3)c2cc1OCCC1CCNCC1 [Compound 88, 6-(3,5-dimethylisoxazol-4-yl)-7-(2-(piperidin-4-yl)ethoxy)-1-(pyridin-2-ylmethyl)quinolin-2(1H)-one] | 1 to 3 µM
7 | COc1cc2c(cc1-c1c(C)noc1C)OCCN2S(=O)(=O)c1cccnc1 [Compound 12, 7-(3,5-dimethylisoxazol-4-yl)-6-methoxy-4-(pyridin-3-ylsulfonyl)-3,4-dihydro-2H-benzo[b][1,4]oxazine] | 1 to 3 µM
8 | Cc1noc(C)c1-c1cc2ccc(=O)n(Cc3ccccn3)c2cc1O [Compound 72, 6-(3,5-dimethylisoxazol-4-yl)-7-hydroxy-1-(pyridin-2-ylmethyl)quinolin-2(1H)-one] | ≤ 1 µM
9 | COc1cc2c(cc1-c1c(C)noc1C)OCC(=O)N2C(C)c1ccncc1 (single isomer, unassigned) [Compound 19, 7-(3,5-dimethylisoxazol-4-yl)-6-methoxy-4-(1-(pyridin-4-yl)ethyl)-2H-benzo[b][1,4]oxazin-3(4H)-one] | > 3 µM
10 | COc1cc2c(ccc(=O)n2Cc2ccncn2)cc1-c1c(C)noc1C [Compound 44, 6-(3,5-dimethylisoxazol-4-yl)-7-methoxy-1-(pyrimidin-4-ylmethyl)quinolin-2(1H)-one] | ≤ 1 µM
11 | CCCCOc1cc2c(ccc(=O)n2Cc2ccccn2)cc1-c1c(C)noc1C [Compound 78, 7-butoxy-6-(3,5-dimethylisoxazol-4-yl)-1-(pyridin-2-ylmethyl)quinolin-2(1H)-one] | ≤ 1 µM
12 | COc1cc2c(cc1-c1c(C)n[nH]c1C)OCC(=O)N2Cc1ccc(Cl)cc1 [Compound 65, 4-(4-chlorobenzyl)-7-(3,5-dimethyl-1H-pyrazol-4-yl)-6-methoxy-2H-benzo[b][1,4]oxazin-3(4H)-one] | ≤ 1 µM
13 | COc1cc2c(ccc(=O)n2Cc2ccccn2)cc1-c1conc1C [Compound 64, 7-methoxy-6-(3-methylisoxazol-4-yl)-1-(pyridin-2-ylmethyl)quinolin-2(1H)-one] | ≤ 1 µM
14 | COc1cc2c(ccc(=O)n2Cc2ccc(Cl)nc2)cc1-c1c(C)noc1C [Compound 67, 1-((6-chloropyridin-3-yl)methyl)-6-(3,5-dimethylisoxazol-4-yl)-7-methoxyquinolin-2(1H)-one] | ≤ 1 µM

Results, then the compound that gave them:

Row | IC50 | SMILES
15 | > 3 µM | COc1cc2c(ccc(=O)n2Cc2ccccn2)cc1-n1c(C)nnc1C [Compound 3, 6-(3,5-dimethyl-4H-1,2,4-triazol-4-yl)-7-methoxy-1-(pyridin-2-ylmethyl)quinolin-2(1H)-one]
16 | > 3 µM | Cc1noc(C)c1-c1cc2ccc(=O)n(Cc3ccccn3)c2cc1OCCN(C)C [Compound 76, 7-(2-(dimethylamino)ethoxy)-6-(3,5-dimethylisoxazol-4-yl)-1-(pyridin-2-ylmethyl)quinolin-2(1H)-one]
17 | ≤ 1 µM | COc1cc2c(ccc(=O)n2C(C)c2cccnc2)cc1-c1c(C)noc1C (stereo not shown) [Compound 41, 6-(3,5-dimethylisoxazol-4-yl)-7-methoxy-1-(1-(pyridin-3-yl)ethyl)quinolin-2(1H)-one]
18 | ≤ 1 µM | Cc1noc(C)c1-c1cc2ccc(=O)n(Cc3ccccn3)c2cc1OCC(F)(F)F [Compound 74, 6-(3,5-dimethylisoxazol-4-yl)-1-(pyridin-2-ylmethyl)-7-(2,2,2-trifluoroethoxy)quinolin-2(1H)-one]
19 | > 3 µM | COc1cc2c(cc1-c1c(C)noc1C)c(C#N)c(C)c(=O)n2CCc1ccc(Cl)cc1 [Compound 105, 1-(4-chlorophenethyl)-6-(3,5-dimethylisoxazol-4-yl)-7-methoxy-3-methyl-2-oxo-1,2-dihydroquinoline-4-carbonitrile]
20 | ≤ 1 µM | COc1cc2c(ccc(=O)n2Cc2ccc(Cl)cn2)cc1-c1c(C)noc1C [Compound 37, 1-((5-chloropyridin-2-yl)methyl)-6-(3,5-dimethylisoxazol-4-yl)-7-methoxyquinolin-2(1H)-one]
21 | ≤ 1 µM | COc1cc2c(cc1-c1c(C)noc1C)ncc(=O)n2Cc1ccc(Cl)cc1 [Compound 4, 1-(4-chlorobenzyl)-6-(3,5-dimethylisoxazol-4-yl)-7-methoxyquinoxalin-2(1H)-one]
22 | ≤ 1 µM | COc1cc2c(ccc(=O)n2Cc2ccccn2)cc1-c1c(C2CC2)noc1C [Compound 62, 6-(3-cyclopropyl-5-methylisoxazol-4-yl)-7-methoxy-1-(pyridin-2-ylmethyl)quinolin-2(1H)-one]
23 | > 3 µM | COc1cc2c(cc1NS(=O)(=O)c1c(C)noc1C)OCC(=O)N2Cc1ccc(Cl)cc1 [Compound 13, N-(4-(4-chlorobenzyl)-6-methoxy-3-oxo-3,4-dihydro-2H-benzo[b][1,4]oxazin-7-yl)-3,5-dimethylisoxazole-4-sulfonamide]
24 | 1 to 3 µM | Cc1noc(C)c1-c1cc2ccc(=O)n(Cc3ccccn3)c2cc1OCCN1CCOCC1 [Compound 75, 6-(3,5-dimethylisoxazol-4-yl)-7-(2-morpholinoethoxy)-1-(pyridin-2-ylmethyl)quinolin-2(1H)-one]
25 | 1 to 3 µM | Cc1noc(C)c1-c1cc2ccc(=O)n(Cc3ccccn3)c2cc1OCC1CCOCC1 [Compound 87, 6-(3,5-dimethylisoxazol-4-yl)-1-(pyridin-2-ylmethyl)-7-((tetrahydro-2H-pyran-4-yl)methoxy)quinolin-2(1H)-one]
26 | ≤ 1 µM | COc1cc2c(ccc(=O)n2Cc2ccccn2)cc1-c1c(C)noc1C [Compound 46, 6-(3,5-dimethylisoxazol-4-yl)-7-methoxy-1-(pyridin-2-ylmethyl)quinolin-2(1H)-one]
27 | ≤ 1 µM | COc1cc2c(cc1-c1c(C)noc1C)ncc(=O)n2Cc1ccccn1 [Compound 93, 6-(3,5-dimethylisoxazol-4-yl)-7-methoxy-1-(pyridin-2-ylmethyl)quinoxalin-2(1H)-one]
28 | ≤ 1 µM | COc1cc2c(ccc(=O)n2Cc2cccnc2)cc1-c1c(C)noc1C [Compound 36, 6-(3,5-dimethylisoxazol-4-yl)-7-methoxy-1-(pyridin-3-ylmethyl)quinolin-2(1H)-one]
29 | ≤ 1 µM | Cc1noc(C)c1-c1cc2ccc(=O)n(Cc3ccccn3)c2cc1OCC1CCNCC1 [Compound 77, 6-(3,5-dimethylisoxazol-4-yl)-7-(piperidin-4-ylmethoxy)-1-(pyridin-2-ylmethyl)quinolin-2(1H)-one]
30 | ≤ 1 µM | COc1cc2c(ccc(=O)n2Cc2ncccc2F)cc1-c1c(C)noc1C [Compound 9, 6-(3,5-dimethylisoxazol-4-yl)-1-((3-fluoropyridin-2-yl)methyl)-7-methoxyquinolin-2(1H)-one]
31 | > 3 µM | COc1cc2c(cc1Nc1c(C)noc1C)OCC(=O)N2Cc1ccc(Cl)cc1 [Compound 95, 4-(4-chlorobenzyl)-7-((3,5-dimethylisoxazol-4-yl)amino)-6-methoxy-2H-benzo[b][1,4]oxazin-3(4H)-one]
32 | ≤ 1 µM | COc1cc2c(ccc(=O)n2Cc2ccc(C(F)(F)F)cn2)cc1-c1c(C)noc1C [Compound 47, 6-(3,5-dimethylisoxazol-4-yl)-7-methoxy-1-((5-(trifluoromethyl)pyridin-2-yl)methyl)quinolin-2(1H)-one]
33 | ≤ 1 µM | COc1cc2c(cc1-c1c(C)noc1C)cc(C1CCCCC1)c(=O)n2Cc1ccccn1 [Compound 68, 3-cyclohexyl-6-(3,5-dimethylisoxazol-4-yl)-7-methoxy-1-(pyridin-2-ylmethyl)quinolin-2(1H)-one]
34 | ≤ 1 µM | COc1cc2c(cc1-c1c(C)noc1C)cc(C)c(=O)n2Cc1ccccn1 [Compound 50, 6-(3,5-dimethylisoxazol-4-yl)-7-methoxy-3-methyl-1-(pyridin-2-ylmethyl)quinolin-2(1H)-one]
